Measurements reported in US7687473B2, “5-amino-4-imidazolecarboxamide riboside and its nucleobase as potentiators of antifolate transport and metabolism” (Health Research, Inc., priority 2005, dated 2010).
Where two headings read alike, the source gives them in different places. Each block holds one compound with its values, some of them ahead of it.

Assays:
CCRF-CEM cells [1] = assay: [3H]MTX uptake (initial velocity and 30 min accumulation) in CCRF-CEM cells; assay type: cell-based, human; settings: for Potentiation of [3H]MTX uptake at 30 min: compound at 0.5 mM, 10 min pre-incubation with TMTX
Protocol: Quantitation of folate and antifolate uptake. The method is essentially as follows. Briefly, logarithmically growing (3-5×10^5/ml) CCRF-CEM cells were harvested at room temperature by centrifugation at 1000×g for 5 min. After washing with the appropriate medium, cells were suspended at ≈2×10^7 cells/ml for use in transport studies. […] Anion-free MHS contains 250 mM sucrose and 20 mM HEPES, titrated to pH 7.4 with MgO. […] Uptake was measured as a function of time for 30 min (for rate and extent measurements) or over 5 min (studies requiring initial velocities). […] Uptake was terminated by diluting 100 μL samples into 1 ml of iced 0.9% NaCl. […] The supernatant was aspirated. The cell pellet was washed once with 1 ml iced 0.9% NaCl and centrifuged as above. The washed pellet was solubilized in 1 ml of 0.3% Triton X-100 by incubation for 60 min at 37° C. The solubilized pellet was transferred to a scintillation vial, 10 ml of Liquiscint (National Diagnostics, Atlanta, Ga.) was added and radioactivity was quantitated in a Beckman Model LS6500 liquid scintillation counter. Separate samples at the longest incubation time used in a particular experiment were harvested for HPLC analysis of intracellular contents as above, except that after the second wash the pellets were extracted with 1 ml boiling 0.1 M Na-phosphate, pH 5.5. The extract was clarified by centrifugation and the supernatant was filtered through an MPS-1 filter unit (Amicon) prior to HPLC analysis.

CCRF-CEM cells [2] = assay: cells; assay type: cell-based, human; settings: for EC50: Homo sapiens, CCRF-CEM, read-out: EC50
Protocol: Inhibition of growth of human cell lines in vitro. Inhibition of growth of CCRF-CEM in continuous and intermittent drug exposures was measured. EC50 values were determined from plots of percent control growth versus the logarithm of drug concentration.
[…]; n=2). […]; n=2). Values presented are average±S.D. for n>2 and average±range for n=2. […] […]; EC50 data may therefore underestimate the biological potency.

[3] = molecular target: T1, reduced folate carrier (RFC) (Homo sapiens, UniProt P41440); assay: Inhibition of initial velocity of [3H]MTX influx by competitors; assay type: cell-based; settings: IC50, inhibition of initial velocity of [3H]MTX influx
T1 construct: endogenous in cells; host or cells: CCRF-CEM (parental)
T1 sequence (P41440 1-591): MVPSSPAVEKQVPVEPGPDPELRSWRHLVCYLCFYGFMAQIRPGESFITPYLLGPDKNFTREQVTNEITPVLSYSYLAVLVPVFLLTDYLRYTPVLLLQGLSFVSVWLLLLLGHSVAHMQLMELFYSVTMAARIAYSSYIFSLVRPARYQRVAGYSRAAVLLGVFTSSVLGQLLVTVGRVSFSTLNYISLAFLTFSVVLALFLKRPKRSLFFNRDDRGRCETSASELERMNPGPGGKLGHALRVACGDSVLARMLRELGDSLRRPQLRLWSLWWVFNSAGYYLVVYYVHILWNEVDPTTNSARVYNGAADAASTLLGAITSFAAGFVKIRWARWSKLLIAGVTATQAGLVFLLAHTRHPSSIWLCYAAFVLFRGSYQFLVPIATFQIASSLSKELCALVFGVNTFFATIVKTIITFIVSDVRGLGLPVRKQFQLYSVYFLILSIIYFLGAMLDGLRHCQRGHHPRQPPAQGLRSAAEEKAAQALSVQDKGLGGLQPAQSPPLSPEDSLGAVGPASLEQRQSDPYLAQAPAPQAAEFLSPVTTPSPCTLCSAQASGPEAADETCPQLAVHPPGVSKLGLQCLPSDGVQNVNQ
Protocol: Duplicate samples were removed at 5 min and processed as described above.
Inhibition of the vi of uptake was measured after pre-incubation of CCRF-CEM cells either with TMTX alone (measuring inhibition at the RFC) or with TMTX+Z (measuring inhibition during Z potentiation). […] All studies were carried out in standard transport medium. Inhibitory potency was measured in two series of experiments and AMT was included in each series as an internal control. Values are average±range of two determinations. […] Values are average±range for duplicate determinations.

SMILES: NC(=O)CC[C@H](N)C(=O)O [glutamine]
- Ability to potentiate [3H]MTX uptake (CCRF-CEM cells [1]): unable to potentiate

SMILES: Nc1ncnc2nc[nH]c12 [adenine]
- Potentiation of [3H]MTX uptake at 30 min (CCRF-CEM cells [1]): do not potentiate

SMILES: O=c1[nH]cnc2nc[nH]c12 [hypoxanthine]
- Potentiation of [3H]MTX uptake at 30 min (CCRF-CEM cells [1]): do not potentiate

- EC50 (CCRF-CEM cells [2]; 0-6 hr pulse exposure out of 120 hr, 50 μM Z): 320 ± 30 nM
- EC50 (CCRF-CEM cells [2]; 0-6 hr pulse exposure out of 120 hr, absence of Z): 300 ± 10 nM
- EC50 (CCRF-CEM cells [2]; 0-16 hr pulse exposure out of 120 hr, 50 μM Z): 102 ± 17.5 nM
- EC50 (CCRF-CEM cells [2]; 0-16 hr pulse exposure out of 120 hr, absence of Z): 85.5 ± 6.5 nM
- EC50 (CCRF-CEM cells [2]; 120 h, 120 hr continuous exposure, 50 μM Z): 19.8 ± 3.3 nM
- EC50 (CCRF-CEM cells [2]; 120 h, 120 hr continuous exposure, absence of Z): 18.3 ± 3.4 nM
SMILES: Nc1nc2[nH]cc(CCc3ccc(C(=O)N[C@@H](CCC(=O)O)C(=O)O)cc3)c2c(=O)[nH]1 [pemetrexed]

SMILES: NC(=O)c1nc[nH]c1N [Z-base, 5-amino-4-imidazolecarboxamide]
- Potentiation of [3H]MTX uptake at 30 min (CCRF-CEM cells [1]): potentiates

SMILES: Nc1nc(N)c2nc(CNc3ccc(C(=O)N[C@@H](CCC(=O)O)C(=O)O)cc3)cnc2n1 [AMT, 4-amino-pteroylglutamic acid]
- Increase of growth inhibitory potency (EC50) by Z (CCRF-CEM cells [2]; 0-24 hr pulse of 120 hr, 100 μM Z): ≈ 2 fold
- EC50 (CCRF-CEM cells [2]; drug exposure 0-24/120 hr, [Z] 0 μM): 6.1 ± 1.3 nM
- EC50 (CCRF-CEM cells [2]; drug exposure 0-24/120 hr, [Z] 100 μM): 3.7 ± 0.3 nM

SMILES: Nc1ncnc2c1ncn2[C@H]1C[C@H](O)[C@@H](CO)O1 [deoxyadenosine]
- Potentiation of [3H]MTX uptake at 30 min (CCRF-CEM cells [1]): do not potentiate

- IC50 ([3]; +TMTX + Z, 10 min pre-incubation with 1 μM TMTX and 0.5 mM Z (Z potentiated influx)): 2700 nM
- IC50 ([3]; +TMTX, 10 min pre-incubation with 1 μM TMTX alone (inhibition of the RFC)): 2600 ± 100 nM
SMILES: Nc1nc2c(c(=O)[nH]1)N(C=O)[C@H](CNc1ccc(C(=O)N[C@@H](CCC(=O)O)C(=O)O)cc1)CN2 [(6R,S)-LV, [6R,S]-5-formyltetrahydrofolate]

SMILES: Nc1nc2c(ncn2[C@H]2C[C@H](O)[C@@H](CO)O2)c(=O)[nH]1 [deoxyguanosine]
- Potentiation of [3H]MTX uptake at 30 min (CCRF-CEM cells [1]): do not potentiate

SMILES: NC(=O)NC1NC(=O)NC1=O (stereo not drawn) [ALN, allantoin]
- Potentiation of [3H]MTX uptake (CCRF-CEM cells [1]; 500 μM): does not potentiate
- Inhibition of potentiation by 500 μM Z (CCRF-CEM cells [1]; up to 100 μM): does not inhibit potentiation

SMILES: NC(=O)c1[nH]nc([C@@H]2O[C@H](CO)[C@@H](O)[C@H]2O)c1O [pyrazofurin]
- Ability to potentiate [3H]MTX uptake (CCRF-CEM cells [1]): unable to potentiate

SMILES: CSCC[C@H](N)C(=O)O [methionine]
- Ability to potentiate [3H]MTX uptake (CCRF-CEM cells [1]): unable to potentiate
